Molecules are shown by their SMILES.

One may read the IC50 as the concentration that inhibits the measured activity by half. Higher therefore signals weaker potency.

In this assay the target is T1, hGOAT (Homo sapiens, UniProt Q96T53).
T1 construct: expressed in transfected cells; host or cells: HEK293 (Hek293 hGOAT/PPGhrl Clone #1B8)
T1 sequence (Q96T53 1-435): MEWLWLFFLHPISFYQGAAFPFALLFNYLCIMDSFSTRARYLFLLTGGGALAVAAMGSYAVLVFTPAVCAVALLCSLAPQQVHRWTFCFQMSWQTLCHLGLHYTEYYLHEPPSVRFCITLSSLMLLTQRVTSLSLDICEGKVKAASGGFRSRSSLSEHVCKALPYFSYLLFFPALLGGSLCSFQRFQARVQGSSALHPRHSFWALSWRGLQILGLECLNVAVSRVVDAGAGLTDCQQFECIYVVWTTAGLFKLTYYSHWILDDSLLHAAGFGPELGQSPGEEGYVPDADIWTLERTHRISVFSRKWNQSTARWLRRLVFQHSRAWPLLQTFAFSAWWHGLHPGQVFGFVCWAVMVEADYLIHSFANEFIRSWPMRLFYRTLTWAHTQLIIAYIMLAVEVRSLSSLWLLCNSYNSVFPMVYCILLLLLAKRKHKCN
Briefly: Determination of hGOAT activity in HEK293 cells after incubation with test compound (acyl-ghrelin ELISA). It counts as cell-based. The conditions noted are these: HEK293 cells stably transfected with preproghrelin and human GOAT; octanoate-BSA 100 μM; 5 hours incubation; acyl-ghrelin in medium by ELISA; 8 compound concentrations. The procedure:
Determination of hGOAT Activity in HEK293 Cells after Incubation with Test Compound
HEK293 cells stably transfected with two expression vectors, one coding for preproghrelin cDNA and a second for the expression of human GOATcDNA are used as a cellular model. After feeding the cells with octanoic acid for 5 hours, acyl-ghrelin is measured in cell culture medium by an ELISA procedure.
Cellline: Hek293 hGOAT/PPGhrl Clone #1B8Sodium octanoate, Sigma, Cat.-No. C5038
BD Poly-D-Lysin 384-well Plates, black-clear polystyrene BD Bioscience Cat.-No. […] ELISA human acylated Ghrelin Kit purchased from Bertin Pharman (detailed composition of buffers e.g. wash-puffer, ELISA buffer not known)
Cells are plated with a density of 5000 cells/well in 384-well poly-D-lysin plates and incubated for 1 day at 37° C., 5% CO2 in DMEM medium, 10% FCS, 1×NEAA, Puromycin (0.5 μg/ml) and G418 (1 mg/ml). Then the medium is changed to a identical medium without FCS and containing Octanoate-BSA (final concentration 100 μM each) and compound in DMSO (final DMSO concentration 0,3%). After incubation for 5 hours acylghrelin in the medium is measured by ELISA.
The medium sample is diluted 1:25 in Elisa buffer, a 25 μl aliquot is transferred to a 384-well ELISA plate previously washed 4 times with 100 μL wash buffer, and 25 μl tracer-solution is added. After incubation overnight (˜20 h) at 4° C. temperature the plate is washed 4 times with 100 μl wash-buffer per well. Finally 50 μl Ellman's reagent is added to each well and the plate is incubated in the dark for 20 minutes. The absorbance is measured at 405 nm in an Envision multilabel reader and the amount of acylated ghrelin is calculated according to a acylated ghrelin standard curve provided in the same plate.
The analysis of the data is performed by calculation of the percentage of acyl-ghrelin produced in the presence of test compound compared to the amount of acyl-ghrelin produced in the vehicle control samples. An inhibitor of the GOAT enzyme will give values between 100% CTL (no inhibition) and 0% CTL (complete inhibition).
IC50 values are calculated with Assay Explorer or other suited software based on curve fitting of results of 8 different compound concentrations.
(In general: An ELISA detects its analyte on a solid surface through an enzyme-linked reagent.)
`Cc1nc2nonc2c(N)c1Cc1ccnc(C#N)c1` [Compound 4.39, 4-({7-Amino-5-methyl-[1,2,5]oxadiazolo[3,4-b]pyridin-6-yl}methyl)pyridine-2-carbonitrile] showed an IC50 of 9.39 nM.

With `Cc1nc2nonc2c(N)c1Cc1ccnc(C(F)(F)F)c1` [Compound 4.40, 5-Methyl-6-{[2-(trifluoromethyl)pyridin-4-yl]methyl}-[1,2,5]oxadiazolo[3,4-b]pyridin-7-amine], the 50% inhibitory concentration (IC50) was found to be 2.21 nM.

For the compound `Cc1nc2nonc2c(N)c1Cc1cccc(OC(F)(F)F)c1` [Compound 4.41, 5-Methyl-6-{[3-(trifluoromethoxy)phenyl]methyl}-[1,2,5]oxadiazolo[3,4-b]pyridin-7-amine], half-maximal inhibition (IC50) required 0.428 nM.

Regarding `Cc1nc2nonc2c(N)c1Cc1cccc(S(=O)(=O)C(F)(F)F)c1` [Compound 4.42, 5-Methyl-6-[(3-trifluoromethanesulfonylphenyl)methyl]-[1,2,5]oxadiazolo[3,4-b]pyridin-7-amine], the IC50 was 0.377 nM.

The compound `Cc1nc2nonc2c(N)c1Cc1ccc(C#N)c(OC(F)(F)F)c1` [Compound 4.43, 4-({7-Amino-5-methyl-[1,2,5]oxadiazolo[3,4-b]pyridin-6-yl}methyl)-2-(trifluoromethoxy)benzonitrile] registered a half-inhibitory concentration (IC50) of 0.052 nM.

The compound `Cc1nc2nonc2c(N)c1Cc1ccc(F)c(Br)c1` [Compound 4.44, 6-(3-Bromo-4-fluoro-benzyl)-5-methyl-[1,2,5]oxadiazolo[3,4-b]pyridin-7-ylamine] gave an IC50 of 0.573 nM.

As to `Cc1nc2nonc2c(N)c1Cc1ccc(C#N)c(Br)c1` [Compound 4.45, 4-(7-Amino-5-methyl-[1,2,5]oxadiazolo[3,4-b]pyridin-6-ylmethyl)-2-bromo-benzonitrile], the IC50 was found to be 0.233 nM.

Regarding `Cc1nc2nonc2c(N)c1Cc1ccc(OC(F)(F)F)cc1F` [Compound 4.46, 6-(2-Fluoro-4-trifluoromethoxy-benzyl)-5-methyl-[1,2,5]oxadiazolo[3,4-b]pyridin-7-ylamine], it took 0.052 nM to reach half-maximal inhibition (IC50).

`Cc1nc2nonc2c(N)c1Cc1cccnc1OC(F)F` [Compound 4.47, 6-{[2-(Difluoromethoxy)pyridin-3-yl]methyl}-5-methyl-[1,2,5]oxadiazolo[3,4-b]pyridin-7-amine]: it took 1.8 nM to reach half-maximal inhibition (IC50).

`Cc1nc2nonc2c(N)c1Cc1ccnc(OC(F)F)c1` [Compound 4.48, 6-(2-Difluoromethoxy-pyridin-4-ylmethyl)-5-methyl-[1,2,5]oxadiazolo[3,4-b]pyridin-7-ylamine] registered a concentration for half-maximal inhibition (IC50) of 3 nM.

In the case of `Cc1nc2nonc2c(N)c1Cc1cnc(OC(F)F)c(C#N)c1` [Compound 4.49, 5-({7-Amino-5-methyl-[1,2,5]oxadiazolo[3,4-b]pyridin-6-yl}methyl)-2-(difluoromethoxy)pyridine-3-carbonitrile], half-maximal inhibition (IC50) was put at 35.7 nM.

In the case of `Cc1nc2nonc2c(N)c1Cc1ccc(F)cc1` [Compound 4.50, 6-[(4-Fluorophenyl)methyl]-5-methyl-[1,2,5]oxadiazolo[3,4-b]pyridin-7-amine], half-maximal inhibition (IC50) was put at 0.751 nM.

`COc1cccc(Cc2c(C)nc3nonc3c2N)c1` [Compound 4.51, 6-[(3-Methoxyphenyl)methyl]-5-methyl-[1,2,5]oxadiazolo[3,4-b]pyridin-7-amine] showed an IC50 of 0.673 nM.

Consider `Cc1nc2nonc2c(N)c1Cc1cc(F)c(F)c(F)c1` [Compound 4.52, 5-Methyl-6-[(3,4,5-trifluorophenyl)methyl]-[1,2,5]oxadiazolo[3,4-b]pyridin-7-amine], for which the IC50 was found to be 1.59 nM.

Regarding `COc1ccc(Cc2c(C)nc3nonc3c2N)cc1` [Compound 4.53, 6-[(4-Methoxyphenyl)methyl]-5-methyl-[1,2,5]oxadiazolo[3,4-b]pyridin-7-amine], the IC50 turned out to be 0.147 nM.

Compound `Cc1nc2nonc2c(N)c1Cc1cccc(OC(F)F)c1` [Compound 4.54, 6-{[3-(Difluoromethoxy)phenyl]methyl}-5-methyl-[1,2,5]oxadiazolo[3,4-b]pyridin-7-amine] registered an IC50 of 0.495 nM.

In turn, `Cc1nc2nonc2c(N)c1Cc1ccnc(Cl)c1` [Compound 4.55, 6-[(2-Chloropyridin-4-yl)methyl]-5-methyl-[1,2,5]oxadiazolo[3,4-b]pyridin-7-amine] gave an IC50 of 6.27 nM.

The compound `Cc1nc2nonc2c(N)c1Cc1ccnc(OC(F)(F)F)c1` [Compound 4.56, 5-Methyl-6-{[2-(trifluoromethoxy)pyridin-4-yl]methyl}-[1,2,5]oxadiazolo[3,4-b]pyridin-7-amine] registered an IC50 of 0.519 nM.

As for `Cc1nc2nonc2c(N)c1Cc1ccc(C(F)(F)F)c(C#N)c1` [Compound 4.57, 5-({7-Amino-5-methyl-[1,2,5]oxadiazolo[3,4-b]pyridin-6-yl}methyl)-2-(trifluoromethyl)benzonitrile], the 50% inhibitory concentration (IC50) is 0.121 nM.

Compound `Cc1nc2nonc2c(N)c1Cc1ccc(OC(F)(F)F)nc1` [Compound 4.58, 5-Methyl-6-{[6-(trifluoromethoxy)pyridin-3-yl]methyl}-[1,2,5]oxadiazolo[3,4-b]pyridin-7-amine] showed an IC50 of 0.752 nM.

In turn, `Cc1nc2nonc2c(N)c1Cc1ccc(C#N)c(C#N)c1` [Compound 4.59, 4-({7-Amino-5-methyl-[1,2,5]oxadiazolo[3,4-b]pyridin-6-yl}methyl)benzene-1,2-dicarbonitrile] yielded an IC50 of 2.51 nM.

Compound `Cc1nc2nonc2c(N)c1Cc1cnc(C(F)(F)F)c(C#N)c1` [Compound 4.60, 5-({7-Amino-5-methyl-[1,2,5]oxadiazolo[3,4-b]pyridin-6-yl}methyl)-2-(trifluoromethyl)pyridine-3-carbonitrile] had an IC50 of 6.74 nM.

Take `Cc1nc2nonc2c(N)c1Cc1ccc(Br)c(C#N)c1` [Compound 4.61, 5-({7-Amino-5-methyl-[1,2,5]oxadiazolo[3,4-b]pyridin-6-yl}methyl)-2-bromobenzonitrile]: the IC50 was found to be 0.542 nM.

The compound `Cc1nc2nonc2c(N)c1Cc1cccc(OCF)c1` [Compound 8.1, 6-{[3-(Fluoromethoxy)phenyl]methyl}-5-methyl-[1,2,5]oxadiazolo[3,4-b]pyridin-7-amine] returned a half-inhibitory concentration (IC50) of 1.09 nM.

In turn, `Nc1c(Cc2ccc(C(F)(F)F)cc2)c(C(F)(F)F)nc2nonc12` [Compound 9.1, 5-(Trifluoromethyl)-6-{[4-(trifluoromethyl)phenyl]methyl}-[1,2,5]oxadiazolo[3,4-b]pyridin-7-amine] showed an IC50 of 9.47 nM.

On to `Cc1nc2nonc2c(N)c1Cc1ccc(O)cc1` [Compound 10.1, 4-(7-Amino-5-methyl-[1,2,5]oxadiazolo[3,4-b]pyridin-6-ylmethyl)-phenol], for which the IC50 is 0.594 nM.

As for `Nc1c(Cc2ccc(OC(F)(F)F)cc2)c(CF)nc2nonc12` [Compound 11.1, 5-(Fluoromethyl)-6-{[4-(trifluoromethoxy)phenyl]methyl}-[1,2,5]oxadiazolo[3,4-b]pyridin-7-amine], half-maximal inhibition (IC50) was put at 0.068 nM.

Take `Cc1nc2nonc2c(N)c1Cc1cccc(-c2ccn[nH]2)c1` [Compound 12.1, 5-Methyl-6-{[3-(1H-pyrazol-5-yl)phenyl]methyl}-[1,2,5]oxadiazolo[3,4-b]pyridin-7-amine]: the IC50 came out at 0.079 nM.

`Cc1nc2nonc2c(N)c1Cc1ccc(OC(F)(F)F)c(-c2cc[nH]n2)c1` [Compound 12.2, 5-Methyl-6-[3-(1H-pyrazol-3-yl)-4-trifluoromethoxy-benzyl]-[1,2,5]oxadiazolo[3,4-b]pyridin-7-ylamine] yielded an IC50 of 0.043 nM.

`Cc1nc2nonc2c(N)c1Cc1ccc(-c2ccsc2C#N)nc1` [Compound 12.3, 3-[5-(7-Amino-5-methyl-[1,2,5]oxadiazolo[3,4-b]pyridin-6-ylmethyl)-pyridin-2-yl]-thiophene-2-carbonitrile]: half-maximal inhibition (IC50) required 0.509 nM.

Consider `Cc1nc2nonc2c(N)c1Cc1ccc(-c2cscc2C#N)nc1` [Compound 12.4, 4-[5-(7-Amino-5-methyl-[1,2,5]oxadiazolo[3,4-b]pyridin-6-ylmethyl)-pyridin-2-yl]-thiophene-3-carbonitrile], for which half-maximal inhibition (IC50) was put at 1.52 nM.

The values above are taken from patent publication US11254688B2 (Boehringer Ingelheim International GmbH, priority 2018, dated 2022).
